# US10883963B2, “Electrochemical measurement using phenylenediamine derivative” (SEIKAGAKU CORPORATION, priority 2016, dated 2021)
# Like-named read-outs stand apart in the source and are kept apart here.
# Key:
# [1] = test system: Limulus reagent Endospecy ES-24S; experiment: Limulus test (2): endotoxin measurement by voltammetric method using labeled substrates; type: biochemical; conditions: substrate for measurement 0.5 mM
# Protocol: Limulus tests using the substrates for measurement acquired in <Reference Example 1> described above were performed, and measurements of endotoxin were performed by a voltammetric method. The test procedures are shown below.
# The same conditions as those described in <Limulus Reaction> of <Example 2> described above were applied except that a cyclic voltammetric measurement was performed instead of the chronoamperometric measurement.
# The same conditions as described in <Measurement Conditions> of <Example 1> above were applied.
# [2] = Stability of labeling substances and substrates in 0.1 M HEPES at 37° C., cyclic voltammetric measurement; type: physicochemical; conditions: for relative value of height of oxidation peak in voltammogram of free molecule (0 hours = 100%): 1.0 mM in 0.1 M HEPES pH 7.8, 37° C., light-shielded; for change of detected value in 2 hours after preparation: 0.1 M HEPES pH 7.8, 37° C.
# Protocol: The labeling substances (pAP, MPDD, and DMPD) and the substrates for measurement (LGR-pAP, LGR-MPDD, LGR-DMPD) were dissolved into 0.1 M HEPES (pH 7.8) and prepared to be 1 mM, and were left to stand for 1 to 24 hours in an incubator at 37° C. Thereafter, a test was performed according to the following procedures.
# As an electrochemical measurement method, cyclic voltammetry and a potential step chronoamperometric method were used. As a measuring device, a working electrode, a reference electrode, and a counter electrode, those described in <Measurement Conditions> below were used. In each measurement, the working electrode, the reference electrode, and the counter electrode were inserted in a solution, and respectively connected to connectors of a potentiostat for a working electrode, a reference electrode, and a counter electrode. After each measurement, the electrode surface of the working electrode was polished with […] polishing alumina, and cleaned with ultrapure water. In the cyclic voltammetric measurement, potential scanning was performed by setting an initial potential and a finish potential to 0 V, a first turnover potential to 0.4 V (0.6 V for LGR-pAP and LGR-DMPD, 0.7 V for LGR-MPDD), and a second turnover potential to −0.2 V, and the current was monitored. In the potential step chronoamperometric measurement, after 0.0 V was applied to the working electrode for 10 seconds, the potential was momentarily changed to 0.3 V, and the current was monitored for 35 seconds.
# 50 ml of test solutions (1.0 mM) of the respective substrates (LGR-pAP, LGR-MPDD, LGR-DMPD) and free molecules (pAP, MPDD, DMPD) were prepared by using 0.1 M HEPES (pH=7.8), put in a disposable 50 ml centrifuge tube (manufactured by IWAKI), and left to stand at 37° C. under light-shielded conditions. When a predetermined time (0.5 h, 1 h, 2 h, 4 h, and 24 h) elapsed, 5 ml was sampled from the test solution and subjected to cyclic voltammetric measurement. MPDD was measured when 6 hours and 8 hours elapsed as well. By using a test solution just after preparation, a measurement at a predetermined time of 0 hours was performed.
# [3] = Evaluation of quantitative performance: cyclic voltammetry and chronoamperometry of substrate / free molecule mixed solutions; type: physicochemical; conditions: mixed solution of substrate and free molecule, 0.1 M HEPES pH 7.8, vs. Ag/AgCl
# Excerpt: As a result of performing a cyclic voltammetric measurement in which the mixture ratio of a substrate and free molecule (labeling substance) was varied in stages, in a voltammogram of a mixed solution of LGR-pAP and pAP, two oxidation peaks at 0.15 V and 0.49 V were confirmed. From individual voltammograms of a substrate molecule and a free molecule, the peak near 0.49 V is considered to be derived from oxidation of LGR-pAP, and the peak near 0.15 V is considered to be derived from oxidation of pAP. Similarly, from a voltammogram of a mixed solution of LGR-DMPD and DMPD, an oxidation peak derived from LGR-DMPD was confirmed near 0.45V, and an oxidation peak derived from DMPD was confirmed near 0.19 V. Further, from a voltammogram of a mixed solution of LGR-MPDD and MPDD, an oxidation peak derived from LGR-MPDD was confirmed near 0.46 V, and an oxidation peak derived from MPDD was confirmed near 0.14 V. Further, when using any substrate, an oxidation peak current value of free molecules increased as the percentage of a free molecule increased. From these facts, it was considered that a concentration of free molecules in each mixed solution could be amperometrically quantified at a potential of 0.3 V vs. Ag/AgCl. Next, in each mixed solution, chronoamperometry was performed. […]
# As an electrochemical measurement method, cyclic voltammetry and a potential step chronoamperometric method were used. […] In the cyclic voltammetric measurement, potential scanning was performed by setting an initial potential and a finish potential to 0 V, a first turnover potential to 0.4 V (0.6 V for LGR-pAP and LGR-DMPD, 0.7 V for LGR-MPDD), and a second turnover potential to −0.2 V, and the current was monitored. In the potential step chronoamperometric measurement, after 0.0 V was applied to the working electrode for 10 seconds, the potential was momentarily changed to 0.3 V, and the current was monitored for 35 seconds. […]
# [4] = 1 mM; FIG. 4 of Patent Literature 1; cited from earlier work
# [5] = test system: Limulus reagent Endospecy ES-24S; conditions: FIG. 8 of Patent Literature 1; cited from earlier work
# [6] = 0 hours (just after preparation)
SMILES,Measured value B: maximum value of oxidation peak current value in Limulus test with substrate (labeling substance bonded to LGR) [1],"relative value of height of oxidation peak in voltammogram of free molecule (0 hours = 100%) [2, 6]",relative value of height of oxidation peak in voltammogram of free molecule (0 hours = 100%) ([2]; 0.5 h),relative value of height of oxidation peak in voltammogram of free molecule (0 hours = 100%) ([2]; 1 h),relative value of height of oxidation peak in voltammogram of free molecule (0 hours = 100%) ([2]; 2 h),change of detected value in 2 hours after preparation [2],oxidation peak potential in cyclic voltammogram [3],oxidation peak current value of labeling substance itself [4],Measured value B: maximum value of oxidation peak current value in Limulus test with substrate (labeling substance bonded to LGR) [5]
"CNc1ccc(N)cc1 [MPDD, N-methyl-p-phenylenediamine]",0.60 μA,100.0%,102.4%,102.3%,101.0%,no decrease,~0.14 V,,
"CN(C)c1ccc(N)cc1 [DMPD, N, N-dimethyl-p-phenylenediamine]",0.31 μA,100.0%,95.3%,94.3%,84.5%,showed a tendency to successively decrease,~0.19 V,,
"COc1ccc(N)cc1 [pMA, para methoxyaniline]",,,,,,,,approximately 3.0 μA,0.28 μA
"Nc1ccc(O)cc1 [pAP, P-aminophenol, reference compound]",,100.0%,94.2%,95.0%,83.0%,showed a tendency to successively decrease,~0.15 V,,
